Test results from patent publication US8138175B2, “Heterocyclyl compounds” (Hoffmann-La Roche Inc., priority 2008, dated 2012).

Biological target: T1, human chemokine receptor 2 isoform B (Homo sapiens, UniProt P41597)
T1 construct: host or cells: CHOK1-CCR2B-A5 (CHO-K1) cells
T1 sequence (P41597 1-360 isoform P41597-2): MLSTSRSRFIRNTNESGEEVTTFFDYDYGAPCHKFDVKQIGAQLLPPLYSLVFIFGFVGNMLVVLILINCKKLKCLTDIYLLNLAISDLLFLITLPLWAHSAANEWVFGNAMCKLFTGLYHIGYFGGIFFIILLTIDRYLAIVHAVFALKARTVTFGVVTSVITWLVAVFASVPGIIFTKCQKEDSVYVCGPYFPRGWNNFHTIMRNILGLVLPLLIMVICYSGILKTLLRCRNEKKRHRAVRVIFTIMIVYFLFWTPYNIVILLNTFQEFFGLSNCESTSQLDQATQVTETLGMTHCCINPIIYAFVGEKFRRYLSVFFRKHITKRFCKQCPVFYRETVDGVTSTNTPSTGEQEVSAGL
Assay: Calcium mobilization assay
Format: cell-based
Details: Ca mobilization assay for CCR2; CHOK1-CCR2B-A5 cells; antagonist activity against 20 nM MCP-1; FLIPR, Fluo-4
Description: Calcium Mobilization Assay
CHOK1-CCR2B-A5 cells (from Euroscreen) stably overexpressing the human chemokine receptor 2 isoform B were cultured in Nutrient Hams F12 medium supplemented with 5% FBS, 100 U/ml penicillin, 100 μg/ml streptomycin, 400 μg/ml G418 and 5 μg/ml puromycin.
For the assay cells were grown overnight in 384-well black clear flat bottom polystyrene plates (Costar) at 37° C. at 5% CO2. After washing with DMEM, 20 mM Hepes, 2.5 mM probenecid, 0.1% BSA (DMEM assay buffer) cells were loaded with 4 μM Fluo-4 in the same DMEM assay buffer for 2 hours at 30° C. Excess dye was removed and cells were washed with DMEM assay buffer. 384-well compound plates were prepared with DMEM assay buffer/0.5% dimethyl sulfoxide with or without various concentrations of test compounds. Usually compounds were tested for agonist and antagonist activity.
Test compounds were added to the assay plate and agonist activity was monitored as fluorescence for 80 seconds with a FLIPR (488 nm excitation; 510-570 nm emission; Molecular Devices). After 20-30 min. of incubation at 30° C., 20 nM MCP-1 (R&D; Roche) was added and fluorescence was monitored again for 80 seconds. Increases in intracellular calcium are reported as maximum fluorescence after agonist exposure minus basal fluorescence before exposure. Antagonist activity is indicated as inhibitor concentration required for 50% inhibition of specific calcium increases.

Compound	IC50 [nM]
COC(=O)C(CCN1CCC2(CC2)[C@H](O)C1)N1CCN(c2cccc(C(F)(F)F)c2)C(C)C1=O (stereo partly drawn) [Example 54, 4-((S)-4-Hydroxy-6-aza-spiro[2.5]oct-6-yl)-2-[3-methyl-2-oxo-4-(3-trifluoromethyl-phenyl)-piperazin-1-yl]-butyric acid methyl ester]	10
CN(C)C(=O)C(CCN1CCC2(CC2)[C@H](O)C1)N1CCN(c2cccc(C(F)(F)F)c2)CCC1=O (stereo partly drawn) [Example 17, (R,S)-4-((S)-4-Hydroxy-6-aza-spiro[2.5]oct-6-yl)-N,N-dimethyl-2-[7-oxo-4-(3-trifluoromethyl-phenyl)-[1,4]diazepan-1-yl]-butyramide]	140
O=C1CCN(c2ccc(C(F)(F)F)cc2)CCN1[C@H](CO)CCN1CCC2(CC2)[C@H](O)C1 [Example 20, 4-[(S)-3-((S)-4-Hydroxy-6-aza-spiro[2.5]oct-6-yl)-1-hydroxymethyl-propyl]-1-(4-trifluoromethyl-phenyl)-[1,4]diazepan-5-one]	350
C[C@H]1C(=O)N(CCCN2CCC3(CC3)[C@H](O)C2)CCN1c1ccc(Cl)c(C(F)(F)F)c1 [Example 76, (S)-4-(4-Chloro-3-trifluoromethyl-phenyl)-1-[3-((S)-4-hydroxy-6-aza-spiro[2.5]oct-6-yl)-propyl]-3-methyl-piperazin-2-one]	7
CC1CN([C@@H](CO)CCN2CCC3(CC3)[C@H](O)C2)C(=O)CCN1c1ccc(Cl)c(Cl)c1 (mixture of isomers) [Example 68, (R,S)-1-(3,4-Dichloro-phenyl)-4-[(S)-3-((S)-4-hydroxy-6-aza-spiro[2.5]oct-6-yl)-1-hydroxymethyl-propyl]-2-methyl-[1,4]diazepan-5-one]	46
C[C@H]1C(=O)N(CCCN2CCC3(CC3)[C@H](O)C2)CCN1c1ccc(C(F)(F)F)c(Cl)c1 [Example 83, (S)-4-(3-Chloro-4-trifluoromethyl-phenyl)-1-[3-((S)-4-hydroxy-6-aza-spiro[2.5]oct-6-yl)-propyl]-3-methyl-piperazin-2-one]	2
COC(=O)[C@H](CCN1CCC2(CC2)[C@H](O)C1)N1CC(C)N(c2ccc(Cl)c(Cl)c2)CCC1=O (mixture of isomers) [Example 67, (S)-2-[(R,S)-4-(3,4-dichloro-phenyl)-3-methyl-7-oxo-[1,4]diazepan-1-yl]-4-((S)-4-hydroxy-6-aza-spiro[2.5]oct-6-yl)-butyric acid methyl ester]	52
CC[C@H]1C(=O)N(CCCN2CCC3(CC3)[C@H](O)C2)CCN1c1ccc(Cl)c(Cl)c1 [Example 87, (S)-4-(3,4-Dichloro-phenyl)-3-ethyl-1-[3-((S)-4-hydroxy-6-aza-spiro[2.5]oct-6-yl)-propyl]-piperazin-2-one]	53
CC1C(=O)N(CCCN2CCCCC2)CCN1c1cccc(C(F)(F)F)c1 (stereo not drawn) [Example 51, 3-Methyl-1-(3-piperidin-1-yl-propyl)-4-(3-trifluoromethyl-phenyl)-piperazin-2-one]	190
CC1C(=O)N(C(CCN2CCC3(CC3)[C@H](O)C2)C(=O)O)CCN1c1cccc(OC(F)(F)F)c1 (stereo partly drawn) [Example 48, 4-((S)-4-Hydroxy-6-aza-spiro[2.5]oct-6-yl)-2-[3-methyl-2-oxo-4-(3-trifluoromethoxy-phenyl)-piperazin-1-yl]-butyric acid]	30
CC1C(=O)N(CCCN2CCCCC2)CCN1c1cccc(OC(F)(F)F)c1 (stereo not drawn) [Example 41, 3-Methyl-1-(3-piperidin-1-yl-propyl)-4-(3-trifluoromethoxy-phenyl)-piperazin-2-one]	580
COC(=O)[C@H](CCN1CCC2(CC2)[C@H](O)C1)N1CCN(c2ccc(Cl)c(Cl)c2)CCC1=O [Example 1, (S)-2-[4-(3,4-Dichloro-phenyl)-7-oxo-[1,4]diazepan-1-yl]-4-((S)-4-hydroxy-6-aza-spiro[2.5]oct-6-yl)-butyric acid methyl ester]	40
COC(=O)C(CCCN1CCC(C)(O)CC1)N1CCN(c2cccc(C(F)(F)F)c2)CCC1=O (racemic) [Example 29, (rac)-5-(4-Hydroxy-4-methyl-piperidin-1-yl)-2-[7-oxo-4-(3-trifluoromethyl-phenyl)-[1,4]diazepan-1-yl]-pentanoic acid methyl ester]	640
C[C@H]1C(=O)N(CCCN2CCC3(CC3)[C@H](O)C2)CCN1c1ccc(C(F)(F)F)c(F)c1 [Example 102, (S)-4-(3-Fluoro-4-trifluoromethyl-phenyl)-1-[3-((S)-4-hydroxy-6-aza-spiro[2.5]oct-6-yl)-propyl]-3-methyl-piperazin-2-one]	6
O=C1CCN(c2ccc(OC(F)(F)F)cc2)CCN1[C@H](CO)CCN1CCC2(CC2)[C@H](O)C1 [Example 12, 4-[(S)-3-((S)-4-Hydroxy-6-aza-spiro[2.5]oct-6-yl)-1-hydroxymethyl-propyl]-1-(4-trifluoromethoxy-phenyl)-[1,4]diazepan-5-one]	120

More lines, in order of falling IC50, values ahead:

IC50 [nM]	Compound
226	CC1C(=O)N(CCCN2CCCCC2)CCN1c1ccc(Cl)c(Cl)c1 (stereo not drawn) [Example 71, 4-(3,4-Dichloro-phenyl)-3-methyl-1-(3-piperidin-1-yl-propyl)-piperazin-2-one]
200	CN(C)C(=O)C(CCCN1CCC(C)(O)CC1)N1CCN(c2cccc(C(F)(F)F)c2)CCC1=O (racemic) [Example 25, (rac)-5-(4-Hydroxy-4-methyl-piperidin-1-yl)-2-[7-oxo-4-(3-trifluoromethyl-phenyl)-[1,4]diazepan-1-yl]-pentanoic acid dimethylamide]
180	O=C1CCN(c2cccc(C(F)(F)F)c2)CCN1[C@@H](CO)CCN1CCC2(CC2)[C@H](O)C1 [Example 9, 4-[(R)-3-((S)-4-Hydroxy-6-aza-spiro[2.5]oct-6-yl)-1-hydroxymethyl-propyl]-1-(3-trifluoromethyl-phenyl)-[1,4]diazepan-5-one]
90	COC[C@H](CCN1C[C@@H](C)C[C@H](O)C1)N1CCN(c2cccc(C(F)(F)F)c2)CCC1=O [Example 24, 4-[(S)-3-((3S,5S)-3-Hydroxy-5-methyl-piperidin-1-yl)-1-methoxymethyl-propyl]-1-(3-trifluoromethyl-phenyl)-[1,4]diazepan-5-one]
80	CN(C)C(=O)[C@H](CCN1CCC2(CC2)[C@H](O)C1)N1CCN(c2ccc(Cl)c(Cl)c2)CCC1=O [Example 59, (S)-2-[4-(3,4-Dichloro-phenyl)-7-oxo-[1,4]diazepan-1-yl]-4-((S)-4-hydroxy-6-aza-spiro[2.5]oct-6-yl)-N,N-dimethyl-butyramide]
73	C[C@H]1C(=O)N(CCCN2CCC3(CC3)[C@H](O)C2)CCN1c1ccc2ccccc2c1 [Example 82, (S)-1-[3-((S)-4-Hydroxy-6-aza-spiro[2.5]oct-6-yl)-propyl]-3-methyl-4-naphthalen-2-yl-piperazin-2-one]
30	CC1C(=O)N(C(CCN2CCC3(CC3)[C@H](O)C2)C(=O)N(C)C)CCN1c1cccc(OC(F)(F)F)c1 (stereo partly drawn) [Example 50, 4-((S)-4-Hydroxy-6-aza-spiro[2.5]oct-6-yl)-N,N-dimethyl-2-[3-methyl-2-oxo-4-(3-trifluoromethoxy-phenyl)-piperazin-1-yl]-butyramide]
11	CC1CN(C(CO)CCN2CCC3(CC3)[C@H](O)C2)C(=O)CCN1c1ccc(Cl)c(Cl)c1 (stereo in doubt) [Example 69, (R)-1-(3,4-Dichloro-phenyl)-4-[(S)-3-((S)-4-hydroxy-6-aza-spiro[2.5]oct-6-yl)-1-hydroxymethyl-propyl]-2-methyl-[1,4]diazepan-5-one]
10	COCC(CCN1CCC2(CC2)[C@H](O)C1)N1CCN(c2cccc(C(F)(F)F)c2)C(C)C1=O (stereo partly drawn) [Example 56, 1-[3-((S)-4-Hydroxy-6-aza-spiro[2.5]oct-6-yl)-1-methoxymethyl-propyl]-3-methyl-4-(3-trifluoromethyl-phenyl)-piperazin-2-one]
10	O=C1CCN(c2cccc(OC(F)(F)F)c2)CCN1[C@H](CO)CCN1CCC2(CC2)[C@H](O)C1 [Example 14, 4-[(S)-3-((S)-4-Hydroxy-6-aza-spiro[2.5]oct-6-yl)-1-hydroxymethyl-propyl]-1-(3-trifluoromethoxy-phenyl)-[1,4]diazepan-5-one]
10	COC[C@H](CCN1CCC2(CC2)[C@H](O)C1)N1CCN(c2cccc(C(F)(F)F)c2)CCC1=O [Example 23, 4-[(S)-3-((S)-4-Hydroxy-6-aza-spiro[2.5]oct-6-yl)-1-methoxymethyl-propyl]-1-(3-trifluoromethyl-phenyl)-[4]diazepan-5-one]
5	CC1C(=O)N(C(CO)CCN2CCC3(CC3)[C@H](O)C2)CCN1c1cccc(OC(F)(F)F)c1 (stereo partly drawn) [Example 49, 1-[3-((S)-4-hydroxy-6-aza-spiro[2.5]oct-6-yl)-1-hydroxymethyl-propyl]-3-methyl-4-(3-trifluoromethoxy-phenyl)-piperazin-2-one]
